Assays:
Assay in all cases: relative viability (nuclei count vs DMSO), 5 days (fraction); higher = more cells survive
ABC-1 = tested on: ABC-1
Outline: (§1)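 Cells from lung cancer lines were seeded into 1536-well plates and, one day later, dosed by pin tool. Treatments were either a single drug or a fixed dose of an anchor drug with five library-drug doses (not always all listed) in √10 steps. After 5 days, nuclei were stained in a one-step fixation (final 0.05% Triton X-100, 1% formaldehyde, 1 ug/ml Hoechst) and counted on 4× images, and relative viability is the treated-to-vehicle nuclei ratio, as the median of duplicate plates.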

CAL-12T = tested on: CAL-12T
Outline: as §1

COR-L23 = tested on: COR-L23
Outline: as §1

EKVX = tested on: EKVX
Outline: as §1

H3255 = tested on: H3255
Outline: as §1

HCC-15 = tested on: HCC-15
Outline: as §1

HCC-827 = tested on: HCC-827
Outline: as §1

LK-2 = tested on: LK-2
Outline: as §1

NCI-H1355 = tested on: NCI-H1355
Outline: as §1

NCI-H1437 = tested on: NCI-H1437
Outline: as §1

NCI-H1563 = tested on: NCI-H1563
Outline: as §1

NCI-H1734 = tested on: NCI-H1734
Outline: as §1

NCI-H2228 = tested on: NCI-H2228
Outline: as §1

NCI-H2405 = tested on: NCI-H2405
Outline: as §1

NCI-H322M = tested on: NCI-H322M
Outline: as §1

NCI-H520 = tested on: NCI-H520
Outline: as §1

NCI-H661 = tested on: NCI-H661
Outline: as §1

PC-14 = tested on: PC-14
Outline: as §1

PC-3 [JPC-3] = tested on: PC-3 [JPC-3]
Outline: as §1

RERF-LC-KJ = tested on: RERF-LC-KJ
Outline: as §1

SW 1573 = tested on: SW 1573
Outline: as §1

`O=C(O)c1ccc(-c2c[nH]c3ncc(-c4ccccc4)cc23)cc1C1CCCC1` + Cc1nc(NC(=O)N2CCC[C@H]2C(N)=O)sc1-c1ccnc(C(C)(C)C(F)(F)F)c1 [Alpelisib] (partner 2 µM) gave a relative viability (ABC-1; first compound 0.04 µM) of 0.831, a relative viability (ABC-1; first compound 0.1265 µM) of 1.09 and a relative viability (ABC-1; first compound 0.4 µM) of 1.24. For the same compound, the relative viability (ABC-1; first compound 1.265 µM) was 1.2, the relative viability (CAL-12T; first compound 0.04 µM) was 1.17 and the relative viability (CAL-12T; first compound 0.1265 µM) was 1.45. It also gave a relative viability (CAL-12T; first compound 0.4 µM) of 1.2, a relative viability (CAL-12T; first compound 1.265 µM) of 1.11 and a relative viability (COR-L23; first compound 0.04 µM) of 0.79. The relative viability (COR-L23; first compound 0.1265 µM) was 0.745, the relative viability (COR-L23; first compound 0.4 µM) was 0.742 and the relative viability (COR-L23; first compound 1.265 µM) was 0.61. It also gave a relative viability (EKVX; first compound 0.04 µM) of 0.984, a relative viability (EKVX; first compound 0.1265 µM) of 0.966 and a relative viability (EKVX; first compound 0.4 µM) of 0.911. It also gave a relative viability (EKVX; first compound 1.265 µM) of 0.812, a relative viability (H3255; first compound 0.04 µM) of 0.931 and a relative viability (H3255; first compound 0.1265 µM) of 0.776. It also gave a relative viability (H3255; first compound 0.4 µM) of 0.715, a relative viability (H3255; first compound 1.265 µM) of 0.769 and a relative viability (HCC-15; first compound 0.04 µM) of 0.956. The relative viability (HCC-15; first compound 0.1265 µM) was 0.837, the relative viability (HCC-15; first compound 0.4 µM) was 0.849 and the relative viability (HCC-15; first compound 1.265 µM) was 0.49. It also gave a relative viability (HCC-827; first compound 0.04 µM) of 0.847, a relative viability (HCC-827; first compound 0.1265 µM) of 0.988 and a relative viability (HCC-827; first compound 0.4 µM) of 0.89. For the same compound, the relative viability (HCC-827; first compound 1.265 µM) was 0.747, the relative viability (LK-2; first compound 0.04 µM) was 1.23 and the relative viability (LK-2; first compound 0.1265 µM) was 0.612. The relative viability (LK-2; first compound 0.4 µM) was 1.19, the relative viability (LK-2; first compound 1.265 µM) was 1.08 and the relative viability (NCI-H1355; first compound 0.04 µM) was 0.795. For the same compound, the relative viability (NCI-H1355; first compound 0.1265 µM) was 0.804, the relative viability (NCI-H1355; first compound 0.4 µM) was 0.819 and the relative viability (NCI-H1355; first compound 1.265 µM) was 0.621. It also gave a relative viability (NCI-H1437; first compound 0.04 µM) of 0.998, a relative viability (NCI-H1437; first compound 0.1265 µM) of 0.951 and a relative viability (NCI-H1437; first compound 0.4 µM) of 0.914. For the same compound, the relative viability (NCI-H1437; first compound 1.265 µM) was 0.882, the relative viability (NCI-H1563; first compound 0.04 µM) was 1.01 and the relative viability (NCI-H1563; first compound 0.1265 µM) was 0.961. The relative viability (NCI-H1563; first compound 0.4 µM) was 0.891, the relative viability (NCI-H1563; first compound 1.265 µM) was 0.991 and the relative viability (NCI-H1734; first compound 0.04 µM) was 0.74. It also gave a relative viability (NCI-H1734; first compound 0.1265 µM) of 0.683, a relative viability (NCI-H1734; first compound 0.4 µM) of 0.598 and a relative viability (NCI-H1734; first compound 1.265 µM) of 0.664. It also gave a relative viability (NCI-H2228; first compound 0.04 µM) of 0.755, a relative viability (NCI-H2228; first compound 0.1265 µM) of 0.787 and a relative viability (NCI-H2228; first compound 0.4 µM) of 0.552. For the same compound, the relative viability (NCI-H2228; first compound 1.265 µM) was 0.468, the relative viability (NCI-H2405; first compound 0.04 µM) was 0.925 and the relative viability (NCI-H2405; first compound 0.1265 µM) was 0.746. The relative viability (NCI-H2405; first compound 0.4 µM) was 0.796, the relative viability (NCI-H2405; first compound 1.265 µM) was 0.591 and the relative viability (NCI-H322M; first compound 0.04 µM) was 0.979. The relative viability (NCI-H322M; first compound 0.1265 µM) was 1, the relative viability (NCI-H322M; first compound 0.4 µM) was 0.834 and the relative viability (NCI-H322M; first compound 1.265 µM) was 0.703. The relative viability (NCI-H520; first compound 0.04 µM) was 0.836, the relative viability (NCI-H520; first compound 0.1265 µM) was 1.09 and the relative viability (NCI-H520; first compound 0.4 µM) was 0.866. The relative viability (NCI-H520; first compound 1.265 µM) was 0.852, the relative viability (NCI-H661; first compound 0.04 µM) was 0.48 and the relative viability (NCI-H661; first compound 0.1265 µM) was 0.676. It also gave a relative viability (NCI-H661; first compound 0.4 µM) of 0.675, a relative viability (NCI-H661; first compound 1.265 µM) of 0.703 and a relative viability (PC-14; first compound 0.04 µM) of 0.933. It also gave a relative viability (PC-14; first compound 0.1265 µM) of 0.897, a relative viability (PC-14; first compound 0.4 µM) of 0.971 and a relative viability (PC-14; first compound 1.265 µM) of 0.886. The relative viability (PC-3 [JPC-3]; first compound 0.04 µM) was 1.05, the relative viability (PC-3 [JPC-3]; first compound 0.1265 µM) was 1.03 and the relative viability (PC-3 [JPC-3]; first compound 0.4 µM) was 1.04. The relative viability (PC-3 [JPC-3]; first compound 1.265 µM) was 0.89, the relative viability (RERF-LC-KJ; first compound 0.04 µM) was 0.838 and the relative viability (RERF-LC-KJ; first compound 0.1265 µM) was 0.762. For the same compound, the relative viability (RERF-LC-KJ; first compound 0.4 µM) was 0.869, the relative viability (RERF-LC-KJ; first compound 1.265 µM) was 0.82 and the relative viability (SW 1573; first compound 0.04 µM) was 0.687. For the same compound, the relative viability (SW 1573; first compound 0.1265 µM) was 0.89, the relative viability (SW 1573; first compound 0.4 µM) was 0.797 and the relative viability (SW 1573; first compound 1.265 µM) was 0.891.

From the supplement of paper PMC10307832
